Measured values: patent publication US20250084091A1, “INHIBITORS OF SARS-COV-2” (The Texas A&M University System, priority 2021, published 2025)
Where two headings read alike, the source gives them in different places.

Columns and labels:
[1] = Uninfected host cell cytotoxicity counter screen; format: cell-based; settings: human
Outline: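 HeLa-ACE2 cells, uninfected, seeded at 400 cells/well with compounds and held 24 hours at 37° C., 5% CO2. Dead cells stained with Image-iT DEAD green, fixed in 4% paraformaldehyde, DAPI-counterstained and imaged. Data normalized to DMSO and 40 μM puromycin controls; concentration responses in triplicate.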

[2] = tested on: SARS-CoV-2 (strain USA-WA1/2020); test: microbe, parasite or virus in culture; format: cell-based; settings: SARS-CoV-2 infected HeLa-ACE2 cells
[3] = target: SARS-CoV-2 main protease (Mpro) (Severe acute respiratory syndrome coronavirus 2, UniProt P0DTD1); test: biochemical
HeLa-ACE2 cells = test: cells; format: cell-based; settings: Table 2, total cell count in infected plates
[4] = Table 2, uninfected cells, 24 hours, read-out: Uninfected HeLa-ACE2 CC50
[5] = Severe acute respiratory syndrome coronavirus 2, HeLa-ACE2, read-out: CoV-2 HeLa EC50, Table 2
[6] = Severe acute respiratory syndrome coronavirus 2, Table 2, read-out: CoV-2 HeLa EC50

Structure (SMILES) | CC50 at 24 h [1, 4] [µM] | EC50 [2, 5] [µM] | IC50 ([3]; Enzyme IC50, Table 2) [µM] | EC50 (HeLa-ACE2 cells) [µM] | CC50 at 24 h [1] [µM] | EC50 [2, 6] [µM] | IC50 ([3]; Table 2, read-out: Enzyme IC50) [µM]
CNC(=O)c1cccc(C(c2ccccc2)N2C3CCC2CN(C(=O)c2cncc(C)c2)C3)c1 (centres unmarked) [AA-630, N-methyl-3-((3-(5-methylnicotinoyl)-3,8-diazabicyclo[3.2.1]octan-8-yl)(phenyl)methyl)benzamide] | > 39.8 | 7.73 | 1.37 | 8.56 | – | – | –
Cc1cncc(C(=O)N2CCN(C(c3ccccc3)c3cccc(C(F)(F)F)c3)CC2)c1 (centres unmarked) [MKP-1276, 1-(5-methylpyridine-3-carbonyl)-4-{phenyl[3-(trifluoromethyl)phenyl]methyl} piperazine] | – | – | – | 3.41 | 22.9 | 0.637 | 0.211
O=C(c1cncc([N+](=O)[O-])c1)N1CCN(C2c3ccccc3CCc3ccccc32)CC1 [ZS-339, (5-nitro-3-pyridyl)-[4-(2-tricyclo[9.4.0.03,8]pentadeca-1(11),3(8),4,6,12,14-hexaenyl)piperazin-1-yl]methanone] | – | – | – | > 9.61 | > 39.8 | 4.06 | 1.15
O=C(c1cc[nH]c(=O)c1)N1CCN(C2c3ccccc3CCc3ccccc32)CC1 [ZS-320, 4-[4-(2-tricyclo[9.4.0.03,8]pentadeca-1(11),3(8),4,6,12,14-hexaenyl)piperazine-1-carbonyl]-1H-pyridin-2-one] | – | – | – | > 9.61 | > 39.8 | 2.53 | 1.18
COc1cncc(C(=O)N2CCN(C(c3ccccc3)c3cccnc3)CC2)c1 (centres unmarked) [MKP-1194, 1-(5-methoxypyridine-3-carbonyl)-4-[phenyl(pyridin-3-yl)methyl]piperazine] | – | – | – | > 9.61 | > 39.8 | 2.12 | 1.1
Cc1cncc(C(=O)N2CCN(C(c3ccccc3)c3cc(F)cc(F)c3)CC2)c1 (centres unmarked) [MKP-1280, 1-[(3,5-difluorophenyl)(phenyl)methyl]-4-(5-methylpyridine-3-carbonyl)piperazine] | – | – | – | 0.261 | > 39.8 | 0.158 | 0.061
O=C(c1cccnc1)N1CCN(C(c2ccccc2)c2cccnc2)CC1 (centres unmarked) [MKP-1183, 1-[phenyl(pyridin-3-yl)methyl]-4-(pyridine-3-carbonyl)piperazine] | – | – | – | > 9.61 | > 39.8 | 4.34 | 1.7
O=C(c1cc[nH]c(=O)c1)N1CCN(C(c2ccccc2)c2ccccc2)CC1 [NZ-769, 4-[4-(diphenylmethyl)piperazine-1-carbonyl]-1,2-dihydropyridin-2-one] | – | – | – | > 9.61 | > 39.8 | 8.05 | 11.3
O=C(c1cc(Br)cnc1Cl)N1CCN(C(c2ccccc2)c2ccccc2)CC1 [AA-606, (4-benzhydrylpiperazin-1-yl)(5-bromo-2-chloropyridin-3-yl)methanone] | – | > 9.61 | – | > 9.61 | > 39.8 | – | > 10
O=C(c1cncc(Cl)c1)N1CCN(C2c3ccccc3CCc3ccccc32)CC1 [ZS-317, (5-chloro-3-pyridyl)-[4-(2-tricyclo[9.4.0.03,8]pentadeca-1(11),3(8),4,6,12,14-hexaenyl)piperazin-1-yl]methanone] | – | – | – | > 9.61 | > 39.8 | 0.9 | 0.18
O=C(c1cccnc1)N1CCN(C2c3ccccc3CCc3ccccc32)CC1 [ZS-312, 3-pyridyl-[4-(2-tricyclo[9.4.0.03,8]pentadeca-1(11),3(8),4,6,12,14-hexaenyl)piperazin-1-yl]methanone] | – | – | – | > 9.61 | > 39.8 | 1.04 | 0.44
Cc1cncc(C(=O)N2CC3CCC(C2)N3C(c2ccccc2)c2ccccc2)n1 [AA-658, (8-benzhydryl-3,8-diazabicyclo[3.2.1]octan-3-yl)-(6-methylpyrazin-2-yl)methanone] | > 39.8 | 1.95 | 0.8 | > 9.61 | – | – | –
Cc1cncc(C(=O)N2CCN(C(c3ccccc3)c3ccccc3F)CC2)c1 (centres unmarked) [MKP-1287, 1-[(2-fluorophenyl)(phenyl)methyl]-4-(5-methylpyridine-3-carbonyl)piperazine] | – | – | – | 0.81 | > 39.8 | 0.599 | 0.066
O=C(c1cncc(Cl)c1)N1CCN(C(c2ccccc2)c2ccsc2)CC1 (centres unmarked) [MKP-1221, 1-(5-chloropyridine-3-carbonyl)-4-[phenyl(thiophen-3-yl)methyl]piperazine] | – | – | – | 0.556 | > 39.8 | 0.831 | 0.33
